In patent US20220056043A1, “NITROGEN-CONTAINING FUSED CYCLIC COMPOUND, PREPARATION METHOD THEREFOR AND USE THEREOF” (SICHUAN KELUN-BIOTECH BIOPHARMACEUTICAL CO., LTD., priority 2019, published 2022):

Key:
hNLRP3 inflammasome = molecular target: T1, hNLRP3 inflammasome (Homo sapiens, UniProt Q96P20); assay: Agonistic effect on the expression of IL-1β in THP-1 cells after PMA-induced differentiation (HTRF); type: cell-based; conditions: IL-1β level, PMA-differentiated THP-1 cells, 6 hours
T1 construct: endogenous in cells; host or cells: THP-1 cells, PMA-differentiated
T1 sequence (Q96P20 whole entry): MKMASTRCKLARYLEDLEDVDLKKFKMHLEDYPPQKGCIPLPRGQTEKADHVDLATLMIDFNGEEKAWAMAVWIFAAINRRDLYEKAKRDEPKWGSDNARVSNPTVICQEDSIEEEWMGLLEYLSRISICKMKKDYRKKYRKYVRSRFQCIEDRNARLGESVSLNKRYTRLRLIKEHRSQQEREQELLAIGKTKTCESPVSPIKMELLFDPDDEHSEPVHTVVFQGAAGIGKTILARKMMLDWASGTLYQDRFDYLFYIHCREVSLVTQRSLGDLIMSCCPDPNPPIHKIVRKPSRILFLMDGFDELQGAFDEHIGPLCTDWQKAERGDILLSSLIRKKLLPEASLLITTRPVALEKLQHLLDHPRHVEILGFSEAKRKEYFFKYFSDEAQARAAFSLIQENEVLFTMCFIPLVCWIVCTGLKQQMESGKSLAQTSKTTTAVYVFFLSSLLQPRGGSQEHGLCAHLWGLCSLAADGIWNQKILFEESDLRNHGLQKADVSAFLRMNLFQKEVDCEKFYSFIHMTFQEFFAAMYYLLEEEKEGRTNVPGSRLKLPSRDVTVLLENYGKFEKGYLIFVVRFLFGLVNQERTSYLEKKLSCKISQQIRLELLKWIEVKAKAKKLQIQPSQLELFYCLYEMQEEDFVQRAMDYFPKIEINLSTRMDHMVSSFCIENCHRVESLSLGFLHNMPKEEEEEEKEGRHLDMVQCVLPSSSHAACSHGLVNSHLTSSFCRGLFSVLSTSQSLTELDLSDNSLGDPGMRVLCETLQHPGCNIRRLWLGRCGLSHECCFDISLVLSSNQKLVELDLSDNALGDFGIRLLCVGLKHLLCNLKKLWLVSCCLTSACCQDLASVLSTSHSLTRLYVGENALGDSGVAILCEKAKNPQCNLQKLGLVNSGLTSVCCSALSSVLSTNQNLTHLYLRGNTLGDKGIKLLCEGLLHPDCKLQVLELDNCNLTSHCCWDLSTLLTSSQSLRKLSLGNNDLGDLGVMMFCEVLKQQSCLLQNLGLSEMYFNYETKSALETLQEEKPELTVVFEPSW
Outline: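 THP-1 cells differentiated with 1 μM PMA for 24 h, then replated at 1×10^5 cells/well in RPMI 1640 with 2% FBS. Compounds added for 6 h at 37 °C, 5% CO2. Supernatant IL-1β measured by HTRF; EC50 from four-parameter variable-slope fit.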

hTLR8 = molecular target: T2, hTLR8 (Homo sapiens, UniProt Q9NR97); assay: Agonistic effect on hTLR8, HEK-Blue hTLR8 cells, alkaline phosphatase secretion; type: cell-based; conditions: 16 hours
T2 construct: host or cells: HEK-Blue hTLR8 cells
T2 sequence (Q9NR97 27-1041): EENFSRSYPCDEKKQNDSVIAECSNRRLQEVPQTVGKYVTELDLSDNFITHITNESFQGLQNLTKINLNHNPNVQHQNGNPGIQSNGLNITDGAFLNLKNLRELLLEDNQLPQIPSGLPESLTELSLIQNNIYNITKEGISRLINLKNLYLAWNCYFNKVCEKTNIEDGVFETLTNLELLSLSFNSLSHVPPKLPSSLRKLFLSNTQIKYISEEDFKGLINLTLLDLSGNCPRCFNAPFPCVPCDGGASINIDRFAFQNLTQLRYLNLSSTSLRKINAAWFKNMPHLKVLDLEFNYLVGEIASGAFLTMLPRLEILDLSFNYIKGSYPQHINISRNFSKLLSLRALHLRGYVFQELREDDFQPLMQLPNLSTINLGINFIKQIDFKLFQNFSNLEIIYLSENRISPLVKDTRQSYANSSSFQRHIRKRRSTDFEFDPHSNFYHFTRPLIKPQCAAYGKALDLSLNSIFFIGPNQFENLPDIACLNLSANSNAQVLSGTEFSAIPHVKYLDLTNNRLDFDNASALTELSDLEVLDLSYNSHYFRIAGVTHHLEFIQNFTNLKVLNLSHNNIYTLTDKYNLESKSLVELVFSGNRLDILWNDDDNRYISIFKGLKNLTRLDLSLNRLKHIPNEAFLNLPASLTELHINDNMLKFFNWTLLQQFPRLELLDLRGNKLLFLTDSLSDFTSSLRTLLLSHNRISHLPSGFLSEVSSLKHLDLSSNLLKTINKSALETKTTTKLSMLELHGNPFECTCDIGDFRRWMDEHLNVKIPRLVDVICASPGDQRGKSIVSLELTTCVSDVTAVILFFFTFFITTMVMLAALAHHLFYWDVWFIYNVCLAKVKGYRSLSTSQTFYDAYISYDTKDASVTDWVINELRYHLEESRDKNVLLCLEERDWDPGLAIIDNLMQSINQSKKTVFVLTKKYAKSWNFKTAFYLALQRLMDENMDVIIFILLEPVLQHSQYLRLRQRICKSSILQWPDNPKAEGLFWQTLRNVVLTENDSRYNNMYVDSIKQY
Experimental: Experimental Example 4: Agonistic Effect of the Compound of the Invention on hTLR8
In this test, the secretion of alkaline phosphatase in HEK-Blue cells was measured to test the activating effect of the compound of the invention on TLR8 signaling pathway, so as to evaluate the specificity of the agonistic effect of the compound on NLRP3 pathway.
Reagents: DMEM (High glucose); FBS (fetal bovine serum) (Gibco); QUANTI-Blue/InvivoGen/rep-qb2
Cells: HEK-Blue™ hTLR8 cells (human TLR 8 cells) (InvivoGen) Experimental Procedures:
1) The HEK-Blue™ hTLR8 cells in a logarithmic growth phase were trypsinized and resuspended in the medium to a concentration of 2×10^6 cells/mL. 50 μL/well of the cell suspension was added to a 96-well plate. An appropriate amount of 10 mM DMSO solution of the compound to be tested was taken and diluted to a concentration of 2× test concentration with the medium. 50 μL/well was added to the cells in the 96-well plate. The plate was incubated in an incubator at 37° C. and 5% CO2 for 16 hours. The medium was DMEM (High glucose) containing 10% FBS. 2) After the cell incubation, 10 μL of cell culture supernatant was transferred to a 96-well plate. 90 μL/well of QUANTI-Blue detection solution was added, and the mixture was incubated at 37° C. for 3 hours. OD620 was read using a microplate reader.
3) The EC50 of the effect of the tested compound to stimulate hTLR8 was fitted by the GraphPad software log(agonist) vs. response—Variable slope four-parameter method.

Compound	EC50 (hNLRP3 inflammasome)	EC50 (hTLR8)
Nc1cc(NC2CCCC2)c2sc(-c3ccn[nH]3)cc2n1 [Compound 110, N^7-cyclopentyl-2-(1H-pyrazol-5-yl)thieno[3,2-b]pyridine-5,7-diamine]	0.02 µM	> 100000 nM
Nc1cc(NC2COC2)c2sc(-c3ccn[nH]3)cc2n1 [Compound 112, N^7-(oxetan-3-yl)-2-(1H-pyrazol-5-yl)thieno[3,2-b]pyridine-5,7-diamine]	0.28 µM	> 100000 nM
Nc1cc(NC2CCC(O)CC2)c2sc(-c3ccn[nH]3)cc2n1 (stereo not drawn) [Compound 114, 4-((5-amino-2-(1H-pyrazol-5-yl)thieno[3,2-b]pyridin-7-yl)amino)-1-cyclohexanol]	0.06 µM	> 100000 nM
C[C@@H]1CN(CCNc2cc(N)nc3cc(-c4ccn[nH]4)sc23)C[C@H](C)O1 [Compound 117, N^7-(2-((2S,6R)-2,6-dimethylmorpholino)ethyl)-2-(1H-pyrazol-5-yl)thieno[3,2-b]pyridine-5,7-diamine]	0.27 µM	> 100000 nM
N#CC1(CNc2cc(N)nc3cc(-c4ccn[nH]4)sc23)CC1 [Compound 119]	0.01 µM	> 100000 nM
Nc1cc(NCC2CCOCC2)c2sc(-c3ccn[nH]3)cc2n1 [Compound 120, 2-(1H-pyrazol-5-yl)-N^7-((tetrahydro-2H-pyran-4-yl)methyl)thieno[3,2-b]pyridine-5,7-diamine]	0.05 µM	> 100000 nM
CC1(CNc2cc(N)nc3cc(-c4ccn[nH]4)sc23)COC1 [Compound 121, N^7-((3-methyloxetan-3-yl)methyl)-2-(1H-pyrazol-5-yl)thieno[3,2-b]pyridine-5,7-diamine]	0.03 µM	> 100000 nM
CC(CO)(CO)CNc1cc(N)nc2cc(-c3ccn[nH]3)sc12 [Compound 122]	0.6 µM	> 100000 nM
Cc1c(-c2cc[nH]n2)sc2c(NCC3CC3)cc(N)nc12 [Compound 156]	5.01 µM	> 100000 nM
Cc1c(-c2ccn[nH]2)sc2c(NC[C@@H]3CCCO3)cc(N)nc12 [Compound 157]	3.47 µM	> 100000 nM
Cc1c(-c2cc[nH]n2)sc2c(NCCCO)cc(N)nc12 [Compound 159]	1.29 µM	> 100000 nM
Nc1cc(N2CCN(C3CCCC3)CC2)c2sc(-c3ccn[nH]3)cc2n1 [Compound 160]	0.11 µM	> 100000 nM
COC1(C)CCN(c2cc(N)nc3cc(-c4ccn[nH]4)sc23)CC1 [Compound 165]	0.03 µM	> 100000 nM
C[C@H]1CN(c2cc(N)nc3cc(-c4ccn[nH]4)sc23)C[C@H](C)O1 [Compound 168]	0.01 µM	> 100000 nM
Nc1cc(N2CCC(O)CC2)c2sc(-c3ccn[nH]3)cc2n1 [Compound 172]	0.03 µM	> 100000 nM
Nc1cc(N2CC3CC(C2)N3)c2sc(-c3ccn[nH]3)cc2n1 [Compound 176]	0.23 µM	> 100000 nM
C[C@@H]1COCCN1c1cc(N)nc2cc(-c3ccn[nH]3)sc12 [Compound 177]	0.03 µM	> 100000 nM
Nc1cc(N2CC3CC(C2)N3C=O)c2sc(-c3ccn[nH]3)cc2n1 [Compound 179]	0.05 µM	> 100000 nM
Nc1cc(N2CC[C@@H](O)C2)c2sc(-c3ccn[nH]3)cc2n1 [Compound 181]	0.009 µM	> 100000 nM

More lines, in order of falling EC50 (hNLRP3 inflammasome), values ahead:

EC50 (hNLRP3 inflammasome)	EC50 (hTLR8)	Compound
4.29 µM	> 100000 nM	Cc1c(-c2cc[nH]n2)sc2c(NCCN3CCOCC3)cc(N)nc12 [Compound 153]
0.34 µM	> 100000 nM	Nc1cc(N2CCCC(O)C2)c2sc(-c3ccn[nH]3)cc2n1 (stereo not drawn) [Compound 166]
0.34 µM	> 100000 nM	Nc1cc(N2CCN(c3ccccc3)CC2)c2sc(-c3ccn[nH]3)cc2n1 [Compound 174]
0.34 µM	> 100000 nM	Nc1cc(N2CCNCC2)c2sc(-c3ccn[nH]3)cc2n1 [Compound 175]
0.27 µM	> 100000 nM	Nc1cc(N2CCN(C3CC3)CC2)c2sc(-c3ccn[nH]3)cc2n1 [Compound 163]
0.23 µM	> 100000 nM	COC(C)(C)CNc1cc(N)nc2cc(-c3ccn[nH]3)sc12 [Compound 111, N^7-(2′-methoxy-2′-methylpropyl)-2-(1H-pyrazol-5-yl)thieno[3,2-b]pyridine-5,7-diamine]
0.18 µM	> 100000 nM	CN1CCN(c2cc(N)nc3cc(-c4ccn[nH]4)sc23)CC1 [Compound 161]
0.17 µM	> 100000 nM	Nc1cc(N2CCN(C=O)CC2)c2sc(-c3ccn[nH]3)cc2n1 [Compound 178]
0.11 µM	> 100000 nM	Nc1cc(N[C@H]2C[C@H]2CO)c2sc(-c3ccn[nH]3)cc2n1 [Compound 182s]
0.1 µM	> 100000 nM	CC1(C)CCN(c2cc(N)nc3cc(-c4ccn[nH]4)sc23)CC1 [Compound 173]
0.04 µM	> 100000 nM	CC(C)(CO)CNc1cc(N)nc2cc(-c3ccn[nH]3)sc12 [Compound 115, 3-((5-amino-2-(1H-pyrazol-5-yl)thieno[3,2-b]pyridin-7-yl)amino)-2,2-dimethyl-1-propanol]
0.03 µM	> 100000 nM	CCC(CC)Nc1cc(N)nc2cc(-c3ccn[nH]3)sc12 [Compound 113, N^7-(pent-3-yl)-2-(1H-pyrazol-5-yl)thieno[3,2-b]pyridine-5,7-diamine]
0.03 µM	> 100000 nM	Nc1cc(NCC(F)F)c2sc(-c3ccn[nH]3)cc2n1 [Compound 116, N^7-(2,2-difluoroethyl)-2-(1H-pyrazol-5-yl)thieno[3,2-b]pyridine-5,7-diamine]
0.03 µM	> 100000 nM	CC1(C)CN(c2cc(N)nc3cc(-c4ccn[nH]4)sc23)CCO1 [Compound 171]
0.02 µM	> 100000 nM	Nc1cc(N2CCOCC2)c2sc(-c3ccn[nH]3)cc2n1 [Compound 170]
0.01 µM	> 100000 nM	CC(C)N1CCN(c2cc(N)nc3cc(-c4ccn[nH]4)sc23)CC1 [Compound 162]
0.01 µM	> 100000 nM	Nc1cc(N2CCN(C3CCCCC3)CC2)c2sc(-c3ccn[nH]3)cc2n1 [Compound 167]
0.01 µM	> 100000 nM	C[C@@H]1CN(c2cc(N)nc3cc(-c4ccn[nH]4)sc23)C[C@H](C)O1 [Compound 169]
0.01 µM	> 100000 nM	COC1CCN(c2cc(N)nc3cc(-c4ccn[nH]4)sc23)C1 (stereo not drawn) [Compound 180]
0.006 µM	> 100000 nM	CS(=O)(=O)N1CCN(c2cc(N)nc3cc(-c4ccn[nH]4)sc23)CC1 [Compound 164]
